The text below walks through data of PubChem BioAssay (NCI).

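Dose response: 5 concentrations. Exposure: 48 h. Format: 96-well plates. Endpoint: linear interpolation; highest concentration if not reached. At the GI50, growth is halved. TGI denotes the concentration required for complete inhibition of growth.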 Where a SMILES comes first, the peptide text is derived from it. Bridges are numbered along the chain shown (N, C = ends). [ ]: non-standard residue; d: D form. The star is where a group is joined. ξ: configuration not given here. X26 = O=C(/C=C/C=C/C=C/C=C/C=C/C(=O)*)NC1=C(O)CCC1=O; NMeA = CN[C@@H](C)C(=O)O; ξF = NC(Cc1ccccc1)C(=O)O; ξA = CC(N)C(=O)O

Experiment in all cases: NCI-60 cell line screen, 48 h
Test [1] has as its system BT-549 breast.
Test [2] has as its system CAKI-1 renal.
For test [3], the system named is DU-145 prostate.
Test [4] has as its system HOP-62 NSCLC.
For test [5], the system named is HS 578T breast.
The test system of test [6] is KM12 colon.
Test [7] deals with MCF7 breast.
Test [8] deals with MOLT-4 leukemia.
In test [9] the test system is OVCAR-4 ovarian.
The subject of test [10] is UACC-62 melanoma.

For the compound `C(/C=C(\Nc1ccccc1)C12CC3CC(CC(C3)C1)C2)=Nc1ccccc1`, the TGI in test [1] is 31.6 µM; in test [2], 29.5 µM; in [3], 56.7 µM; in [4], 45.7 µM; in test [5], over 100 µM; in [6], 35.2 µM. Also, the TGI in test [7] stood at 59.4 µM; in [8], 22.9 µM; in test [9], 48.8 µM; in test [10] it was 25.7 µM.

Take `c1csc(-c2ccc(-c3cccs3)c3nsnc23)c1`: the TGI in test [1] is over 100 µM; in test [2], over 100 µM; in [3], over 70.6 µM; in test [4], over 95.7 µM; in [5], 47.2 µM; in test [6] it was 22.2 µM. Besides, the TGI in test [7] is over 100 µM; in test [8], 30.3 µM; in test [9] it was over 100 µM; in [10], over 100 µM.

Turning to `CCOC(=O)C(Cl)(Cl)/S(=N\S(=O)(=O)c1ccccc1)NC(=O)c1ccccc1` (stereo not drawn), the TGI in test [1], in test [3], in test [4], in test [5], in [6] and in test [7] was over 100 µM in each case. The TGI in test [8], in test [9] and in test [10] was over 100 µM throughout.

Turning to `O=C(O)c1cc(-c2ccc3c(O)c(O)ccc3c2)ccc1O`, the TGI in test [2] was 25.6 µM; in [3], over 75 µM; in test [4], over 75 µM; in test [5], over 75 µM; in [6], over 75 µM; in test [7] it was 25.1 µM. Moreover, the TGI in test [8] was 33.2 µM; in [9], 27 µM; in test [10], over 75 µM.

For `Cc1ccc([N+](=O)[O-])cc1N=NC(=O)NNc1cc([N+](=O)[O-])ccc1C`, the TGI in test [1] is 52.1 µM; in [2], 66.8 µM; in test [3], over 100 µM; in [4] it was over 100 µM; in test [5], 55.6 µM; in test [6], 49.3 µM. The TGI in test [7] was 67.3 µM; in test [8] it was 41 µM; in [10], 33.2 µM.

For `CSc1c(C#N)c(N)n(-c2ccc(C)cc2)c(=O)c1C#N`, the TGI in [1], in test [2], in test [3], in test [5], in [6] and in test [7] was over 100 µM each time. Moreover, the TGI in [8], in [9] and in test [10] was over 100 µM in each case.

In the case of `Cc1c(N2C(=O)C(Cl)C2c2ccc(Cl)cc2)c(=O)n(-c2ccccc2)n1C` (stereo not drawn), the TGI in test [1], in test [2], in [3], in test [4], in test [6] and in [7] was over 100 µM each time. Further, the TGI in test [8], in [9] and in [10] was over 100 µM in each case.

As to `C(=Nc1ccc(-c2nc3ccccc3o2)cc1)c1ccco1`, the TGI in test [1], in test [2], in test [3], in test [7], in test [8] and in test [9] was over 100 µM in each case.

Consider `COc1cc2cc(Oc3ccc(NC(=O)c4cc(C(F)(F)F)cc(C(F)(F)F)c4)cc3)c(C)nc2cc1OC`, for which the GI50 was 3.02 µM in test [1]; 1500 nM in test [2]; 4.78 µM in test [3]; over 50 µM in [4]; 9.13 µM in [5]; 2790 nM in test [6]. Besides, the results for the GI50 in [7], in [8] and in test [9] were 1910 nM, 3.71 µM and 4.53 µM, respectively. Further, the TGI in test [1], in test [2], in test [3], in test [4], in [5] and in test [6] was over 50 µM in each case. Besides, the TGI in [7], in test [8] and in test [9] was over 50 µM in each case.

For `CC(O)CCCOC(c1ccccc1)(c1ccccc1)c1ccccc1` (stereo not drawn), the TGI turned out to be 29.9 µM in test [2]; 30.4 µM in [3]; 31.4 µM in [4]; 39.6 µM in [5]; 27.8 µM in test [6]; 28.3 µM in test [7]. For the same compound, the figures for the TGI in test [8], in test [9] and in test [10] were over 50.9 µM, 28.1 µM and 27 µM, respectively.

For `NCCCN1CCN(CCCNc2ccc3nnn4c5ccccc5c(=O)c2c34)CC1`, the TGI in test [1] was 22.6 µM; in test [2], 59.2 µM; in test [3], 57.6 µM; in test [4] it was over 100 µM; in test [5], 81.8 µM; in test [7], 74.7 µM. Further, the results for the TGI in test [8], in test [9] and in test [10] were over 100 µM, 33.1 µM and 33.7 µM, respectively.

Regarding `CC1NC(=O)[C@H](C)N(C)C(=O)[C@@H]2CCCN2C(=O)[C@@H](NC(=O)C(Cc2ccccc2)NC(=O)/C=C/C=C/C=C/C=C/C=C/C(=O)NC2=C(O)CCC2=O)COC(=O)[C@@H]2CCCN2C1=O` (stereo partly drawn) (X26-[ξF]SP[NMeA][ξA]P; ester 2-C), the TGI in test [1], in test [2], in test [3], in test [4], in [5] and in [6] was over 100 µM in each case. Besides, the TGI in [7], in test [9] and in test [10] was over 100 µM in each case.

On to `COC(=O)CCc1cc(OC)c2c(c1)[C@H](C(=O)OC)[C@@H](c1ccc(O)c(OC)c1)O2`, for which the TGI in test [1], in test [3], in test [4], in test [5], in test [6] and in test [7] was over 100 µM each time. Moreover, the TGI in [8], in test [9] and in test [10] was over 100 µM throughout.

Regarding `CC(C)(C)OC(=O)NCCC(N)=S`, the TGI in test [1], in test [3], in [4], in [5], in [6] and in [7] was over 100 µM in each case. Besides, the TGI in [8] and in test [10] was over 100 µM throughout.
